In PubChem BioAssay (NCI) one finds TGI and GI50 data, which are given here for 18 molecules.

Some test systems named below: CCRF-CEM leukemia; SF-295 CNS; SF-539 CNS; EKVX NSCLC; NCI-H460 lung; SF-268 CNS; HCT-15 colon; SN12C renal; M14 melanoma.
Holding throughout (assay): growth of human tumour cells (NCI), 48 h

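Results reflect a 48-hour exposure of cells in 96-well plates to compound at five concentrations. At the GI50, growth is halved. Definition used: TGI = concentration required for complete inhibition of growth.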 A value given as a limit tells only on which side of the number the result lay.

Turning to `Cc1cc(N(CCC#N)CCC#N)ccc1/C=C/C(=O)Nc1cccc(Cl)c1`, the TGI in the experiment with CCRF-CEM leukemia, in the experiment with SF-295 CNS, with SF-539 CNS, in the experiment with EKVX NSCLC, in the experiment on NCI-H460 lung and in the experiment on SF-268 CNS was greater than 100 µM in each case. The TGI in the experiment with HCT-15 colon, in the experiment with SN12C renal and in the experiment on M14 melanoma was greater than 100 µM in each case.
With `Cc1c(C#N)c(=O)[nH]c(=O)n1CCN1CCN(C(=O)NCCCCCCNC(=O)N2CCN(CCn3c(C)c(C#N)c(=O)[nH]c3=O)CC2)CC1`, the TGI in the experiment with CCRF-CEM leukemia, with SF-295 CNS, in the experiment on SF-539 CNS, in the experiment with EKVX NSCLC, with NCI-H460 lung and with HCT-15 colon was greater than 100 µM throughout. For the same molecule, the TGI with SN12C renal and with M14 melanoma was greater than 100 µM in each case.
On to `C=C1COC(/C=C(\C)CC/C=C(\C)CCl)C1` (centres undefined), for which the TGI with CCRF-CEM leukemia, with SF-295 CNS, with SF-539 CNS, with EKVX NSCLC, in the experiment with NCI-H460 lung and in the experiment on SF-268 CNS was greater than 100 µM in each case. In addition, the TGI in the experiment on HCT-15 colon, in the experiment on SN12C renal and with M14 melanoma was greater than 100 µM throughout.
For `CC(C)CC(CC1=CCC2CC1C2(C)C)C1=C(O)C(C)(C)C(=O)C(C)(C)C1=O` (centres undefined), the GI50 was 0.353 µM in the experiment on CCRF-CEM leukemia; 0.285 µM with SF-295 CNS; 0.357 µM with SF-539 CNS; 0.33 µM in the experiment on EKVX NSCLC; 0.354 µM with SF-268 CNS; 0.35 µM in the experiment on HCT-15 colon. The values for the GI50 in the experiment with SN12C renal and in the experiment on M14 melanoma were 0.324 µM and 0.404 µM, respectively. Also, the TGI in the experiment on CCRF-CEM leukemia is 3.12 µM; in the experiment with SF-295 CNS, 0.942 µM; in the experiment on SF-539 CNS it was greater than 100 µM; with EKVX NSCLC, greater than 100 µM; in the experiment with SF-268 CNS, greater than 100 µM; in the experiment on HCT-15 colon, 5.18 µM. Moreover, the TGI with SN12C renal was greater than 100 µM; in the experiment with M14 melanoma, 5.86 µM.
Take `CCOC(=O)C(C)(c1cn(C)c2ccccc12)c1cn(C)c2ccccc12`: the TGI with CCRF-CEM leukemia, with SF-295 CNS, with SF-539 CNS, with EKVX NSCLC, in the experiment on NCI-H460 lung and in the experiment with HCT-15 colon was greater than 100 µM throughout. The molecule also registered a TGI in the experiment on M14 melanoma greater than 100 µM.
In the case of `COc1ccc(C2CC(c3cc(OC)c(OC)c(OC)c3)=NN2C(C)=O)cc1OCC(=O)Nc1nc2ccc(C(F)(F)F)cc2s1` (centres undefined), the GI50 in the experiment on SF-295 CNS was 3.06 µM; in the experiment with SF-539 CNS, 1.75 µM; in the experiment with EKVX NSCLC it was 4.1 µM; with SF-268 CNS, 3.84 µM; with HCT-15 colon it was 9.26 µM; in the experiment with SN12C renal, 3.31 µM. Further, in the experiment on M14 melanoma, the GI50 was 6.44 µM. The TGI was 11.5 µM in the experiment on SF-295 CNS; 3.42 µM in the experiment on SF-539 CNS; greater than 100 µM with EKVX NSCLC; 29.5 µM in the experiment on SF-268 CNS; greater than 100 µM with HCT-15 colon; greater than 100 µM with SN12C renal. In the experiment on M14 melanoma, the TGI is greater than 100 µM.
With `COc1cc2c(cc1OCCCCOc1cc3c(cc1OC)C(=O)N1CCC[C@H]1CN3)N=C[C@@H]1CCCN1C2=O`, the GI50 with CCRF-CEM leukemia was 0.243 µM; in the experiment on SF-539 CNS it was 0.419 µM; in the experiment with EKVX NSCLC, 5.13 µM; with NCI-H460 lung it was 2.92 µM; in the experiment with SF-268 CNS, 0.344 µM; with HCT-15 colon it was 25.2 µM. Moreover, the GI50 with SN12C renal is 2.29 µM; in the experiment on M14 melanoma it was 2.37 µM. Also, the TGI was 1.2 µM with SF-295 CNS; 2.89 µM in the experiment with SF-539 CNS; 76.5 µM with EKVX NSCLC; greater than 100 µM in the experiment on NCI-H460 lung; 4.95 µM in the experiment on SF-268 CNS; greater than 93.3 µM with HCT-15 colon. The TGI amounted to 18.2 µM with SN12C renal and 7.19 µM in the experiment with M14 melanoma.
In the case of `c1ccc2c(c1)c(NCCCCN1CCCCC1)cc1c3ccccc3c(NCCCCN3CCCCC3)cc21`, the GI50 in the experiment on CCRF-CEM leukemia is 13.4 µM; in the experiment on SF-295 CNS, 22.8 µM; in the experiment with SF-539 CNS, 16.5 µM; in the experiment with EKVX NSCLC, 19.9 µM; in the experiment with NCI-H460 lung, 18.3 µM; with SF-268 CNS, 14.1 µM. Moreover, the GI50 was 22.8 µM in the experiment with HCT-15 colon and 17.2 µM with SN12C renal. In addition, the TGI in the experiment on CCRF-CEM leukemia was greater than 100 µM; with SF-295 CNS, 65.4 µM; in the experiment on SF-539 CNS it was 37.5 µM; with EKVX NSCLC, 42 µM; in the experiment with NCI-H460 lung, 53.7 µM; with SF-268 CNS, 32.1 µM. In addition, the TGI in the experiment with HCT-15 colon was 47.5 µM; with SN12C renal, 35.4 µM.
Turning to `COc1cc(C(=O)C/C(CCC(=O)Nc2ccccc2[N+](=O)[O-])=N\NC(=O)CC#N)ccc1O`, the TGI in the experiment with CCRF-CEM leukemia, with SF-295 CNS, in the experiment on SF-539 CNS, with EKVX NSCLC, with NCI-H460 lung and in the experiment on SF-268 CNS was greater than 100 µM in each case. In addition, the TGI with HCT-15 colon, in the experiment on SN12C renal and in the experiment with M14 melanoma was greater than 100 µM throughout.
As for `COc1cc2c(c(OC)c1OC)-c1ncc3cc(OC)c(OC)c(OC)c3c1C2`, the GI50 with CCRF-CEM leukemia is greater than 100 µM; with SF-295 CNS, 18.7 µM; with EKVX NSCLC, 23.1 µM; in the experiment on NCI-H460 lung it was 30 µM; with HCT-15 colon it was 23.4 µM; in the experiment on SN12C renal it was 17.6 µM. Also, the GI50 in the experiment on M14 melanoma is 50.7 µM. Further, the TGI was greater than 100 µM in the experiment with CCRF-CEM leukemia; 42.4 µM in the experiment on SF-295 CNS; 66.7 µM in the experiment with EKVX NSCLC; 78.2 µM in the experiment on NCI-H460 lung; 83.5 µM in the experiment on HCT-15 colon; 73.7 µM in the experiment with SN12C renal. For the same molecule, the TGI with M14 melanoma was greater than 100 µM.
Regarding `O=C(O)C1(P(=O)(O)O)CC1`, the TGI with CCRF-CEM leukemia, in the experiment on SF-295 CNS, with SF-539 CNS, in the experiment on EKVX NSCLC, in the experiment with NCI-H460 lung and in the experiment with SF-268 CNS was greater than 100 µM in each case. Also, the results for the TGI with HCT-15 colon, in the experiment on SN12C renal and in the experiment with M14 melanoma were greater than 100 µM, greater than 100 µM and 76.4 µM, respectively.
In the case of `COc1ccc(C2=C(Cl)c3cc(OC)c(OC)cc3C2Cl)cc1OC` (centres undefined), the TGI in the experiment with CCRF-CEM leukemia amounted to 28.9 µM; with SF-295 CNS, 33.8 µM; in the experiment with EKVX NSCLC, 50.5 µM; with NCI-H460 lung, 34.8 µM; in the experiment on HCT-15 colon, 55.6 µM; with SN12C renal, 38.4 µM. The TGI with M14 melanoma is 34.9 µM.
Take `CCOC(=O)C(=O)Nc1c(CC)cccc1C(C)C`: the TGI in the experiment on SF-295 CNS, in the experiment with SF-539 CNS, in the experiment with EKVX NSCLC, in the experiment on NCI-H460 lung, in the experiment with SF-268 CNS and in the experiment with HCT-15 colon was greater than 100 µM throughout. Also, the TGI with SN12C renal and with M14 melanoma was greater than 100 µM throughout.
With `Nn1c(-c2ccccc2Cl)nc2ccccc2c1=O`, the TGI in the experiment with CCRF-CEM leukemia, in the experiment on SF-295 CNS, in the experiment with SF-539 CNS, with EKVX NSCLC, with NCI-H460 lung and with SF-268 CNS was greater than 100 µM each time. In addition, the TGI in the experiment on HCT-15 colon, with SN12C renal and with M14 melanoma was greater than 100 µM in each case.
For the molecule `CCOC(=O)C1=C(NC)OC/C1=N\NC(=O)c1ccccc1O`, the TGI in the experiment on CCRF-CEM leukemia is greater than 100 µM; in the experiment with SF-295 CNS, greater than 100 µM; in the experiment on SF-539 CNS it was 60.6 µM; in the experiment on EKVX NSCLC, greater than 100 µM; in the experiment on NCI-H460 lung it was greater than 100 µM; in the experiment with SF-268 CNS, greater than 100 µM. In addition, the TGI in the experiment with SN12C renal and in the experiment on M14 melanoma was greater than 100 µM each time.
As to `Clc1cc(Cl)c(OCC#CI)cc1Cl`, the GI50 with CCRF-CEM leukemia is 2.88 µM; in the experiment on SF-295 CNS, 10.4 µM; in the experiment with SF-539 CNS, 2.94 µM; in the experiment with EKVX NSCLC, 14 µM; in the experiment on NCI-H460 lung it was 15.5 µM; in the experiment with SF-268 CNS, 11 µM. The GI50 in the experiment with HCT-15 colon is 5.02 µM; in the experiment on SN12C renal it was 10.1 µM; with M14 melanoma, 2.13 µM. Also, the TGI with CCRF-CEM leukemia was greater than 100 µM; in the experiment on SF-295 CNS, 23.7 µM; with SF-539 CNS, 12.8 µM; in the experiment on EKVX NSCLC, 30.2 µM; with NCI-H460 lung it was 30.9 µM; in the experiment on SF-268 CNS, 23.4 µM. Further, the TGI in the experiment on HCT-15 colon stood at 23.5 µM; in the experiment on SN12C renal it was 23 µM; in the experiment on M14 melanoma it was 5.41 µM.
As for `CCCCCCCCCCCCCCCCCC(=O)OCC(COC1OC(COP(=O)(O)O)C(O)C(O)C1O)OC(=O)CCCCCCCCCCCCCCCCC` (centres undefined), the TGI amounted to 14.4 µM in the experiment on CCRF-CEM leukemia; 10.6 µM in the experiment on SF-295 CNS; 18.1 µM with SF-539 CNS; 16.4 µM in the experiment on EKVX NSCLC; 23.4 µM with NCI-H460 lung; 17 µM in the experiment on SF-268 CNS. Besides, the TGI with HCT-15 colon is 14.4 µM; in the experiment on SN12C renal, 14.1 µM; in the experiment with M14 melanoma it was 17.3 µM.
`CCC1CN2CCc3cc(OC)c(OC)cc3C2CC1CC1c2cc(OC)c(OC)cc2CCN1C(=O)C1CCCN1C(=O)OCc1ccccc1` (centres undefined): the TGI was found to be 30.4 µM in the experiment with SF-295 CNS; 33 µM with SF-539 CNS; 43.3 µM in the experiment with EKVX NSCLC; 30.2 µM in the experiment on NCI-H460 lung; 31.9 µM in the experiment on SF-268 CNS; 29.9 µM in the experiment with HCT-15 colon. Further, the values for the TGI with SN12C renal and with M14 melanoma were 30.6 µM and 30.9 µM, respectively.
